Reference: patent publication US4937346A, “Phenyl-azacykloalkanes” (Carlsson; Per Arvid Emil, priority 1979, dated 1990)
Structures can show the parent of a compound that is named as a salt. Where two headings read alike, the source gives them in different places.

How the values were obtained:
[1] = tested on: dopaminergic receptors (presynaptic and postsynaptic); experiment: Dopaminergic receptor profile of 3-PPP and its enantiomers (summary of tests); format: in vivo; conditions: summary of enantiomer tests
Excerpt: The two enantiomers of 3-PPP have now been tested separately.

dopa formation = experiment: Dopa formation and dopamine metabolite levels in rats not pretreated with GBL or reserpine; format: in vivo, rat
[2] = tested on: presynaptic dopaminergic receptor (autoreceptor); experiment: Spontaneous exploratory motor activity of rats, enantiomers of 3-PPP; format: in vivo, rat
Method: 1. Evidence for presynaptic dopaminergic receptor (autoreceptor) agonist activity of both enantiomers of 3-PPP. Both enantiomers of 3-PPP cause a dose-dependent decrease in spontaneous exploratory motor activity of rats. […] However, the (+)-enantiomer causes a decrease only after doses between 0.25 and 4 mg/kg s.c.

[3] = tested on: postsynaptic dopaminergic receptors; experiment: Locomotor activity in reserpine-treated rats, enantiomers of 3-PPP; format: in vivo, rat
Excerpt: 2. Evidence for postsynaptic dopaminergic receptor agonist activity of (+)-3-PPP.

[4] = tested on: rat brain tyrosine hydroxylation; experiment: In-vivo determination of rat brain tyrosine hydroxylation (Dopa formation after NSD 1015, reserpine-pretreated rats); conditions: sc
Method: 2. In-vivo determination of rat brain tyrosine hydroxylation.
The compounds under evaluation were tested biochemically for central DA-receptor (pre- and/or postsynaptic) stimulating activity. The concept of this biochemical screening method is that a DA-receptor agonist will stimulate the receptor and through regulatory feedback systems effect a decline in tyrosine hydroxylase activity and thus a subsequent reduction in the synthesis rate for DA in the presynaptic neuron. Dopa formation, as determined after in-vivo inhibition of the aromatic L-amino acid decarboxylase with NSD 1015 (3-hydroxybenzyl-hydrazine hydrochloride), is taken as an indirect measure of DA synthesis rate.
Rats (150-300 g) pretreated with reserpine were given the compounds under evaluation. Gross behavioral observations (changes in motility, stereotypies etc.) were made in order to evaluate possible postsynaptic dopamine receptor activity. Subsequent administration of NSD 1015, decapitation, brain dissection (corpora striate and the limbic fore-brain), homogenization, centrifugation, ion-exchange chromatography and spectrofluorimetric measurements (all as described in detail by Wikstrom et al., in J. Med. Chem. 21, 864-867, 1978, and references cited therein), gave the actual Dopa levels. Several doses (n=4-6) were tested in order to obtain dose-response curves for each compound and brain area. The dose of a compound producing a half-maximal decrease in the Dopa level in the rat brain part was then estimated.

[5] = tested on: postsynaptic dopaminergic receptor; experiment: Antagonism of apomorphine-induced locomotor stimulation; format: in vivo, rat; conditions: apomorphine 1 mg/kg s.c., means ± s.e.m., n=10
Method: 3. Evidence for postsynaptic dopminergic receptor antagonist activity of (-)-3-PPP.
The locomotor stimulating action of the dopamine receptor aqonist apomorphine is antagonized by (-)-3-PPP. […] Thus the postsynaptic receptor antagonist activity requires a larger dose than the presynaptic receptor agonist activity, which is evident after doses down to 0.25 mg/kg.
Further, (-)-3-PPP and racemic 3-PPP have been compared regarding antagonism of apomorphine-induced locomotor stimulation. Either form of 3-PPP was injected subcutaneously in a dose of 8 mg/kg 20 min and apomorphine in a dose of 1 mg/kg subcutaneously 5 min before placing the rats in the Motron for 30 min. Shown are the counts per 30 min., means± s.e.m. and number of experiments (n).

[6] = tested on: central postsynaptic DA-receptor; experiment: Locomotor activity in reserpine-pretreated rats, comparison of compound 4 with two known dopaminergic agonists; format: in vivo, rat; conditions: for Motor activity: 0-60 min postinj.; for central postsynaptic DA-receptor stimulation / motor response: s.c.
Method: Rats (150-300 g) pretreated with reserpine (10 mg/ kg i.p., 6 h before) were given either phys. saline, compound 4 (100 μmol/kg), N-n-propyl-3-(3,4-dihydroxyphenyl)piperidine (100 μmol/kg) or apomorphine ([…]) subcutaneously and the locomotor activity (accumulated counts 0-60 min.) was quantified by means of Motron boxes (see under 4 above).

[7] = tested on: postsynaptic DA receptors; experiment: Antagonism of the reserpine-induced "neuroleptic syndrome" in the rat; format: in vivo; conditions: 20 mg/kg s.c.
Excerpt: 1. Antagonism of the reserpine-induced "neuroleptic syndrome" in the rat
Depletion of the monoamine stores with reserpine brings about a "neuroleptic syndrome" characterized by hypomotility, catalepsy, muscle rigidity, hunch-backed posture as well as a number of other central and peripheral signs of monoamine depletion. This syndrome can be reversed by the administration of drugs that stimulate postsynaptic DA receptors directly or indirectly, e.g. apomorphine, L-Dopa.
Rats (150-300 g) pretreated with reserpine (10 mg/kg i.p., 6 h before) were given compound 4 subcutaneously at different doses.

DA autoreceptors = experiment: Effect on spontaneous locomotor activity in the rat; format: in vivo; conditions: 0-15 min; haloperidol 0.02 mg/kg i.p. 25 min before + saline, n=5
Excerpt: 4. Effect on spontaneous locomotor activity in the rat.
Untreated animals exposed to a new environment display an initial high motor activity which then gradually declines over a period of time. Administration of DA-receptor agonists (e.g. apomorphine) in doses where preferential autoreceptor stimulation is likely to occur, causes a depression of the spontaneous motility mentioned above, considered to be due to the DA autoreceptor-mediated impairment of central DA transmission.
Rats (150-300 g) were injected subcutaneously with several doses of compounds 4 and after 5 minutes they were individually placed in motility boxes ("M/P 40 Fc Electronic Motility Meter". Motron Products, Stockholm) and the motor activity (0-30 min.) was quantified. […] Moreover, there seems to be a correlation between the decrease in spontaneous locomotion and the degree of antagonism of the GBL-induced increase in DA synthesis (cf. 3 above) in the limbic areas of rat brain exerted by compound 4, the per cent decrease of motor activity being roughly 0.6 times the per cent reversal of GBL-induced increase in DA-synthesis rate.

[8] = limbic, inactive, read-out: ED50 Limbic (class symbol)
[9] = striatum, inactive, read-out: ED50 Striatum (class symbol)
[10] = reserpine-pretreated rats, Dopa level, limbic, read-out: ED50 Limbic
[11] = reserpine-pretreated rats, Dopa level, striatum, read-out: ED50 Striatum

Row | Compound | ED50 [4, 10] [µmol/kg] | ED50 [4, 11] [µmol/kg] | further results
1 | CCCN1CCCC(c2cccc(O)c2)C1 (single isomer, unassigned; (+)) [(+)-3-PPP, reference compound] |  |  | activity on presynaptic and postsynaptic dopaminergic receptors [1]: dopaminergic receptor agonist by activating both the presynaptic and the postsynaptic receptors; dopa formation (dopa formation; 0.053 to 64 mg/kg, no pretreatment): decrease; levels of 3,4-dihydroxyphenyl acetic acid and homovanillic acid (dopa formation; matched to the changes in dopa formation): corresponding changes in the levels of the dopamine metabolites; effect on locomotor activity ([2]; 8 mg/kg s.c.): no effect; increase of locomotor activity to % of control ([2]; 64 mg/kg s.c.): more than 200 % of control; decrease of locomotor activity to % of control ([2]; s.c., first 30 min): 30-40 % of control; effect of haloperidol on locomotor stimulation ([3]; haloperidol): blocked by haloperidol; stimulation of locomotor activity ([3]; reserpine-treated rats, (+)-form 0.25 to 64 mg/kg): marked stimulation of locomotor activity
2 | Oc1cccc(C2CCNC2)c1 (centres unmarked) [1 OH H HBr, reference compound] |  |  | ED50 [4, 8]: > 90 µmol/kg; ED50 [4, 9]: > 90 µmol/kg
3 | CCCN1CCCC(c2cccc(OC)c2)C1 (centres unmarked) [2 OCH3 n-C3 H7 HBr, N-Propyl-3-(3-methoxyphenyl)piperidine hydrobromide, reference compound] |  |  | ED50 [4, 8]: > 180 µmol/kg; ED50 [4, 9]: > 180 µmol/kg
4 | CN1CCc2cccc3c2[C@H]1Cc1ccc(O)c(O)c1-3 [Apomorphine, reference compound] | 0.19 | 0.22 | counts per 30 min., apomorphine alone [5]: 513 ± 35 counts per 30 min.; Motor activity ([6]; 2 μmol/kg s.c.): 624 ± 51 acc. counts; central postsynaptic DA-receptor stimulation / motor response [6]: strong central postsynaptic DA-receptor stimulatory effects
5 | CN1CCCC(c2cccc(O)c2)C1 (centres unmarked) [Compound 1] | 2.1 | 1.5 | 
6 | CCCN1CCC(c2cccc(O)c2)C1 (centres unmarked) [Compound 3, N-propyl-30(3-hydroxyphenyl)pyrrolidine] | ~45 | ~45 | 
7 | CCCCN1CCCC(c2cccc(O)c2)C1 (centres unmarked) [Compound 5, N-butyl-3-(3-hydroxphenyl)piperidine] | 1.7 | 0.7 | 
8 | CCCCCN1CCCC(c2cccc(O)c2)C1 (centres unmarked) [Compound 6, N-pentyl-3-(3-hydroxyphenyl)piperidine hydrochloride] | 0.9 | 0.6 | 
9 | CC(C)N1CCCC(c2cccc(O)c2)C1 (centres unmarked) [Compound 7, N-isopropyl-3-(3-hydroxphenyl)piperidine] | 0.8 | 0.7 | antagonism of the reserpine-induced syndrome [7]: No antagonism of the reserpine-induced syndrome was seen
10 | C=CCN1CCCC(c2cccc(O)c2)C1 (centres unmarked) [Compound 9] | 4.2 | 4 | 
11 | CCCN1CCCC(c2cccc(OC(C)=O)c2)C1 (centres unmarked) [Compound 10, N-n-Propyl-3-(3-acetoxyphenyl)piperidine hydrochloride] | 1.2 | 1.5 | 
12 | CCCN1CCCC(c2cccc(OC(=O)C(C)(C)C)c2)C1 (centres unmarked) [Compound 11] | 2.2 | 1.7 | 
13 | CCCN1CCCC(c2cccc(OC(=O)c3ccccc3)c2)C1 (centres unmarked) [Compound 12, N-n-Propyl-3-(3-benzoyloxyphenyl)piperidine hydrochloride] | 1.8 | 2 | 
14 | OCCN1CCCC(c2cccc(O)c2)C1 (centres unmarked) [Compound 13, 2-[3-(3-Hydroxyphenyl)-piperidino]ethanol hydrochloride] | ~20 | ~20 | 
15 | CN(C)CCN1CCCC(c2cccc(O)c2)C1 (centres unmarked) [Compound 14] | ~20 | ~20 | 
16 | C=CCOc1cccc(C2CCCN(CCC)C2)c1 (centres unmarked) [Compound 16, N-n-Propyl-3-(3-allyloxyphenyl)piperidine hydrochloride] | < 45 | < 45 | 
17 | CCCN1CCCC(c2cccc(OCc3ccccc3)c2)C1 (centres unmarked) [Compound 17, N-n-Propyl-3-(3-benzyloxyphenyl)piperidine hydrochloride] | < 45 | < 45 | 
18 | CCCN1CCCC(c2cccc(OC(=O)Nc3ccccc3)c2)C1 (centres unmarked) [Compound 18, N-n-Propyl-3[3-(phenylcarbamoyloxy)phenyl]-piperidine hydrochloride] |  |  | ED50 ([4]; read-out: ED50 Limbic): < 45 µmol/kg; ED50 ([4]; read-out: ED50 Striatum): < 45 µmol/kg
19 | CCCN1CCCC(c2cccc(OC(=O)c3c(C)cccc3C)c2)C1 (centres unmarked) [Compound 19, N-n-Propyl-3-[2,6-dimethylbenzoyloxy)-phenyl]piperidine hydrochloride] | < 45 | < 45 | 
20 | CCCN1CCCC(c2cccc(OC(=O)c3ccc(OC(=O)C(C)(C)C)cc3)c2)C1 (centres unmarked) [Compound 20] | < 45 | < 45 | 
21 | CC(C)N1CCCC(c2cccc(OC(=O)c3ccccc3)c2)C1 (centres unmarked) [Compound 21] | 0.5 | 0.5 | 
22 | CCCCN1CCCC(c2cccc(OC(=O)c3ccccc3)c2)C1 (centres unmarked) [Compound 22] | < 2.7 | < 2.7 | 
23 | O=C(CCCN1CCC(O)(c2ccc(Cl)cc2)CC1)c1ccc(F)cc1 [Haloperidol, reference compound] |  |  | Motor activity (DA autoreceptors): 140 ± 22 acc. counts
24 | CCCN1CCCC(c2ccc(O)c(O)c2)C1 (centres unmarked) [N-n-propyl-3-(3,4-dihydroxyphenyl)piperidine, reference compound] | 9.4 | 10 | Motor activity ([6]; 100 μmol/kg s.c.): 522 ± 83 acc. counts; central postsynaptic DA-receptor stimulation / motor response [6]: strong central postsynaptic DA-receptor stimulatory effects
